{"source": "patent US9770481B2", "about": "“Inhibitors of NOX1” (UNIVERSITY OF PITTSBURGH—OF THE COMMONWEALTH SYSTEM OF …, priority 2011, dated 2017)", "key": {"Nox5": {"target": "T1, Nox5 (Homo sapiens, UniProt Q96PH1)", "T1 construct": "expressed in transfected cells; cell lysates", "T1 sequence (Q96PH1 1-765)": "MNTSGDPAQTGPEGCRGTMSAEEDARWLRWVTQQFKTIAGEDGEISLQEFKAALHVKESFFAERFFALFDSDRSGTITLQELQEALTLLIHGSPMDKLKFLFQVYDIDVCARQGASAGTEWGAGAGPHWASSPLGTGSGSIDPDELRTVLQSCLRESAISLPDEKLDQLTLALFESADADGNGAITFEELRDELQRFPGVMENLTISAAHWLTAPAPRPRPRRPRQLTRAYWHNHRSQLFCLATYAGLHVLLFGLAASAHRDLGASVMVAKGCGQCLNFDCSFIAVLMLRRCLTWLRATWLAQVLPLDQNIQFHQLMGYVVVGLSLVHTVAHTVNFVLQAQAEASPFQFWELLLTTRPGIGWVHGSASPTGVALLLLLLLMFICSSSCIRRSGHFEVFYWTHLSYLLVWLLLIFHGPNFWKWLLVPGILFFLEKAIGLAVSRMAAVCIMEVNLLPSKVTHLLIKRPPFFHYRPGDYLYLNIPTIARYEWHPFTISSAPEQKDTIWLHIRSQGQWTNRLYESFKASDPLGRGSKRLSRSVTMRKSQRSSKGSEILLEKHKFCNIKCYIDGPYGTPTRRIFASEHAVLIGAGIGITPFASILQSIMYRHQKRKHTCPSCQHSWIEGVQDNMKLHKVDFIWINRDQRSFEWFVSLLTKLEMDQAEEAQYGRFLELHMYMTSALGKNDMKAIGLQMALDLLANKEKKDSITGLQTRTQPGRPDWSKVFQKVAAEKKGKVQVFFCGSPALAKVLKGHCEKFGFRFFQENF", "assay": "O2- production by lysates of HEK293 cells stably transfected with Nox5 oxidase, Ca2+-stimulated (cytochrome c)", "format": "cell-based", "settings": "0.1 nM to 10,000 nM", "method": "(§1) To test whether the inhibitory effect of NoxA1ds is specific to Nox1, the effect of NoxA1ds was tested on cells expressing Nox2, Nox4, and Nox5 as well as on purified xanthine oxidase enzyme. To test the effect on Nox2, production of O2^− was measured by the reduction of cytochrome c by cell lysates from COS cells transiently transfected with the Nox2 oxidase, stimulated with LiDS, and the treated with increasing concentrations of NoxA1ds (from 0.1 nM to 10,000 nM). Similarly, production of H2O2 was measured by Amplex red fluorescence by COS cells transiently transfected with the Nox4 oxidase and treated with increasing concentrations of NoxA1ds (from 100 nM to 10,000 nM). Production of O2^− was also measured by the reduction of cytochrome c by cell lysates from HEK293 cells stably transfected with the Nox5 oxidase stimulated with Ca^2+, and treated with increasing concentrations of NoxA1ds (from 0.1 nM to 10,000 nM). Finally, production of O2^− was measured by Electron Paramagnetic Resonance from pure xanthine oxidase enzyme preparations, stimulated with hypoxanthine and treated with increasing concentrations of NoxA1ds (from 0.1 nM to 10,000 nM)."}, "Nox4": {"target": "T2, Nox4 (Homo sapiens, UniProt Q9NPH5)", "T2 construct": "expressed in transfected cells; host or cells: COS22 / COS cells, transient transfection", "T2 sequence (Q9NPH5 1-578)": "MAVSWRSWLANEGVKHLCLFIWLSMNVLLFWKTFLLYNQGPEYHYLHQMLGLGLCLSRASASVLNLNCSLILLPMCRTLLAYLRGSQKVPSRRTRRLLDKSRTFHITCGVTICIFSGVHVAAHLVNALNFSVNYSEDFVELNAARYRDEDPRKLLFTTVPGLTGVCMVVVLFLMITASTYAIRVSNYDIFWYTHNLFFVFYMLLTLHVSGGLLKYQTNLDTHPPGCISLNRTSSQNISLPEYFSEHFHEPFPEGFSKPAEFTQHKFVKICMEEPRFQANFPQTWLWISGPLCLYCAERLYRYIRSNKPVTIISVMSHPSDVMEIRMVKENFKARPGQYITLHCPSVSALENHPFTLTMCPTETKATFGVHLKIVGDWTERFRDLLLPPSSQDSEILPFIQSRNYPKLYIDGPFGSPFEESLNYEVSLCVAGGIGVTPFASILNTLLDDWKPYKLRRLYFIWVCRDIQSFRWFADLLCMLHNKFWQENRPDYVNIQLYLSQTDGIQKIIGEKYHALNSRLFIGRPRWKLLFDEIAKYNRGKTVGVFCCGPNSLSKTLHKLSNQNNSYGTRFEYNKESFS", "T2 sequence (P13498 1-195 partner)": "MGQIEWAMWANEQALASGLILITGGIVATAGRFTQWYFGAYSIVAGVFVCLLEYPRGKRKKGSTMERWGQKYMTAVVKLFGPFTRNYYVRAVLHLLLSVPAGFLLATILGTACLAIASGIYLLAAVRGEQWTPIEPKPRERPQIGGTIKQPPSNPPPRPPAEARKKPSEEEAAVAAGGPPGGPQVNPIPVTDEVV", "assay": "H2O2 production by COS cells transfected with Nox4 oxidase (Amplex red)", "format": "cell-based", "settings": "100 nM to 10,000 nM", "method": "as §1"}, "Nox2": {"target": "T3, Nox2 (Homo sapiens, UniProt P04839)", "T3 construct": "expressed in transfected cells; host or cells: COS22 / COS cells, transient transfection; cell lysates", "T3 sequence (P04839 2-570 limits assumed)": "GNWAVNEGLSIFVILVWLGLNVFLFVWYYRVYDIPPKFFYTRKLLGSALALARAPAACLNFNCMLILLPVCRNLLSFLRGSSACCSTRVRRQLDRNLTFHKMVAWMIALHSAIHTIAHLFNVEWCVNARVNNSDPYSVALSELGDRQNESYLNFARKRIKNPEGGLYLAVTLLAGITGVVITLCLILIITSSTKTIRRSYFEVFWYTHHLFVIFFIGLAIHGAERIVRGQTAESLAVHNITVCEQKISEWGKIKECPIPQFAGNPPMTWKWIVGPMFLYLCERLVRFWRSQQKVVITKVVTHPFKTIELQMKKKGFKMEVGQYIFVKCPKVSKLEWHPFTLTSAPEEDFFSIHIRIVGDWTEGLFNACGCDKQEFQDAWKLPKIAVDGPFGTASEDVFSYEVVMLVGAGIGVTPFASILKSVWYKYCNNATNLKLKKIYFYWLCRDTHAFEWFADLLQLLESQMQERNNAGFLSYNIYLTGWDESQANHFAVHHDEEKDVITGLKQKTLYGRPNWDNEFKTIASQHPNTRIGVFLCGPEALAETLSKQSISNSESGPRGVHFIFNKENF", "T3 sequence (P13498 1-195 partner)": "T2 sequence (P13498 1-195 partner)", "assay": "O2- production by lysates of COS cells transfected with Nox2 oxidase, LiDS-stimulated (cytochrome c)", "format": "cell-based", "settings": "0.1 nM to 10,000 nM", "method": "as §1"}, "xanthine oxidase": {"tested_on": "xanthine oxidase", "assay": "O2- production by pure xanthine oxidase stimulated with hypoxanthine (EPR)", "format": "biochemical", "settings": "0.1 nM to 10,000 nM", "method": "as §1"}}, "data": [{"substance": "H-EPVDALGKAKV-NH2 [NoxA1ds, [NH3^+]-EPVDALGKAKV-[CONH2]]", "values": [{"measurement": "Inhibitory effect on Nox5 O2- production", "setting": "Nox5", "value": "did not exhibit a significant inhibitory effect"}, {"measurement": "Inhibitory effect on Nox4 H2O2 production", "setting": "Nox4", "value": "did not exhibit a significant inhibitory effect"}, {"measurement": "Inhibitory effect on Nox2 O2- production", "setting": "Nox2", "value": "did not exhibit a significant inhibitory effect"}, {"measurement": "Inhibitory effect on xanthine oxidase O2- production", "setting": "xanthine oxidase", "value": "did not exhibit a significant inhibitory effect"}]}]}
